Results taken from patent US20090246273A1, “Ketorolac Sublingual Spray for the Treatment of Pain” (priority 2008, published 2009).

How the values were obtained:
[1] = In vivo absorption of ketorolac spray from the sublingual cavity (plasma levels vs intravenous); parameters: species or system rabbit; conditions: rabbits
Procedure: These experiments determine the bioavailability of ketorolac after transmucosal administration to the sublingual tissue in rabbit and compare it to that after intravenous administration.
The transmucosal absorption of ketorolac was measured using an in vivo technique in rabbits. Following introduction of lidocaine local anesthesia, a catheter was placed in the marginal ear artery of the rabbit for blood sample collection. For intravenous administration, a catheter was placed in the marginal ear vein of the rabbit and ketorolac aqueous solution (0.5 mg/kg, 0.1 mL) was administered; a sterile drug solution was prepared by filtration (double 0.22 μm filters). A dose of […] ketorolac was injected into the marginal ear vein cannula followed by a 0.1 mL flush with 10% (v/v) heparin/normal saline solution to keep the cannula patent.
For sublingual spray administration, the ketorolac dose (3 mg/kg, 0.1 mL) of the ketorolac formulation was applied by spray to the sublingual mucosa of the rabbit.
Aliquot parts of 0.5 mL blood samples were collected at predetermined time points, collected into pre-heparinized tubes and immediately placed on ice. […]
Bioavailability of sublingually administered drug was calculated by comparing the plasma drug concentration between sublingual and intravenous delivery routes and expressed as a percentage of the intravenous bioavailability. […]

[2] = rapid metabolism of ketorolac; background on the intravenous mode of delivery; cited from earlier work

- time of peak plasma concentration following transmucosal administration ([1]; sublingual spray 3 mg/kg single dose, n=3): approximately 10 minutes
- absorption following transmucosal administration through the sublingual route (comparing areas under the plasma concentration versus time curves) ([1]; sublingual spray 3 mg/kg vs intravenous 0.5 mg/kg, over 180 minutes): rapidly and completely absorbed
SMILES: O=C(c1ccccc1)c1ccc2n1CCC2C(=O)O (stereo not drawn) [ketorolac, 5-benzoyl-2,3-dihydro-1H-Pyrrolizine-1-carboxylic acid]
- half-life [2]: 4 to 5 h
